The record followed here is patent publication US6740635B2, “Antiviral linear polymers” (Biomolecular Research Institute Ltd., priority 1996, dated 2004).

Series [1] is described as follows: in vitro.
The subject of another series is HIV 1 IIIB. The experiment in a line: microbe, parasite or virus in culture. The class given is cell-based, Human Immunodeficiency Virus type 1. The settings on record: Human immunodeficiency virus 1, IIIB.
Series [2] concerns HSV-1. The experiment in a line: HSV-1 Plaque Reduction. The settings on record: Human alphaherpesvirus 1, HFF, in Homo sapiens, read-out: EC50, HSV-1 Plaque Reduction.
The next series concerns VZV. The experiment in a line: VZV viral count or plaque reduction. In kind it is cell-based, Varicella Zoster Virus. The conditions noted are these: Human alphaherpesvirus 3.
In series [3] the test system is HSV-2. The experiment in a line: HSV-2 Plaque Reduction. The conditions noted are these: Human alphaherpesvirus 2, HFF, in Homo sapiens, read-out: EC50, HSV-2 Plaque Reduction.
Series [4] concerns HSV-2. The experiment in a line: HSV-2 CPE Inhibition. The conditions noted are these: Human alphaherpesvirus 2, HFF, in Homo sapiens, read-out: EC50, HSV-2 CPE Inhibition.
Series [5] deals with HSV-1. The experiment in a line: HSV-1 CPE Inhibition. The settings on record: Human alphaherpesvirus 1, HFF, in Homo sapiens, read-out: EC50, HSV-1 CPE Inhibition.
Series [6] in a line: in vitro. The conditions noted are these: mouse.
Series [7] deals with Cytomegalovirus (Davis strain). The experiment in a line: HCMV CPE Inhibition. The settings on record: Human betaherpesvirus 5, HFF, in Homo sapiens, read-out: EC50, HCMV CPE Inhibition.
Series [8] deals with Cytomegalovirus (Davis strain). The experiment in a line: HCMV Plaque Reduction. The conditions noted are these: Human betaherpesvirus 5, HFF, in Homo sapiens, read-out: EC50, HCMV Plaque Reduction.
The subject of a further series is MCMV. The experiment in a line: MCMV Plaque Reduction. The settings on record: Mus musculus, MEF, read-out: EC50, MCMV Plaque Reduction.
In the next series the test system is RSV; Long. The experiment in a line: RSV Long CPE-inhibition. The class given is cell-based, Respiratory Syncytial Virus.
For series [9], the system named is RSV; A2. The experiment in a line: RSV A2 Neutral Red cell count. The conditions noted are these: human respiratory syncytial virus, read-out: NR = Neutral Red cell count EC50. In kind it is cell-based.
For series [10], the system named is RSV; A2. The experiment in a line: RSV A2 viral count or plaque reduction. The class given is cell-based. The conditions noted are these: human respiratory syncytial virus, Table 5.
Another series has as its system Flu B. The experiment in a line: microbe, parasite or virus in culture. The conditions noted are these: Influenza B virus, read-out: NR = Neutral Red cell count EC50. In kind it is cell-based.
Another series concerns CMV. The experiment in a line: microbe, parasite or virus in culture. In kind it is cell-based. The conditions noted are these: Human betaherpesvirus 5, read-out: CPE-inhibition EC50.
The subject of series [11] is RSV; A2. The experiment in a line: RSV A2 virus yield.

Values after ≈ are worked out from the molar mass of the structure shown. Where two headings read alike, the source gives them in different places.

The term EC50 denotes the concentration needed to bring the measured effect to its halfway point. For the compound `Cc1cn([C@H]2C[C@H](N=[N+]=[N-])[C@@H](CO)O2)c(=O)[nH]c1=O` [AZT, Zidovudine], the CC50 in the series “in vitro [1]” (CC50, parallel to HIV 1 IIIB test, Table 1, standards) turned out to be 1.17 µg/mL; in the series “in vitro [1]” (CPE-inhibition (CC50), parallel to HIV-1 IIIB test, Table 5, Concentrations μM) it was 4.38 µM. In addition, the EC50 amounted to 0.0001 µg/mL with HIV 1 IIIB and 0.00037 µM in the series with HIV 1 IIIB (read-out: CPE-inhibition EC50).
In the case of `Nc1nc2c(ncn2COCCO)c(=O)[nH]1` [Acyclovir], the EC50 with HSV-1 [2] came to 0.3 µg/mL (≈ 1.33 µM); in the series on VZV, 0.5 µg/mL (≈ 2.22 µM); in the series on HSV-2 [3] it was 0.6 µg/mL (≈ 2.66 µM); in the series with HSV-2 [4], 0.2 µg/mL (≈ 0.888 µM); in the series on HSV-1 [5] it was 0.06 µg/mL (≈ 0.266 µM).
`Nc1nc(O)c2ncn(COC(CO)CO)c2n1` [Ganciclovir]: the CC50 in the series “in vitro [6]” stood at 0.5 µg/mL (≈ 1.96 µM). Besides, the EC50 was found to be 0.1 µg/mL (≈ 0.392 µM) in [7], 0.2 µg/mL (≈ 0.784 µM) in [8] and 0.6 µg/mL (≈ 2.35 µM) in the series on MCMV.
A word on the EC90: it is the concentration at which the effect reaches the 90% level. For `NC(=O)c1ncn([C@@H]2O[C@H](CO)[C@@H](O)[C@H]2O)n1` [Ribavirin], the “CPE-inhibition EC50” value in the series with RSV; Long was determined as 7 µg/mL. Besides, the EC50 is 10 µg/mL (≈ 40.9 µM) in the series on RSV; Long (human respiratory syncytial virus); 1 µg/mL (≈ 4.09 µM) in the series on RSV; A2 [9]; 2 µg/mL (≈ 8.19 µM) in the series with RSV; A2 [10]; 1.8 µg/mL (≈ 7.37 µM) with Flu B; 25 µg/mL (≈ 102 µM) in the series with CMV; 6 µg/mL (≈ 24.6 µM) with RSV; A2 [11] (human respiratory syncytial virus, read-out: Virus Yield EC50). For the same compound, the CC50 in the series “in vitro [1]” is above 100 µg/mL; in “in vitro [1]” (CPE-inhibition (CC50), parallel to CMV CPE-inhibition, Table 6) it was 118 µg/mL; in “in vitro [1]” (CPE-inhibition (CC50), parallel to RSV A2 CPE-inhibition) it was above 1000 µg/mL; in the series “in vitro [1]” (NR = Neutral Red cell count (CC50)), 40 µg/mL; in the series “in vitro [1]” (Viral count or Plaque Reduction (CC50), parallel to RSV A2 viral count, Table 5), above 1000 µg/mL; in the series “in vitro [1]” (Virus Yield (CC50), parallel to RSV A2 virus yield test), 71 µg/mL. In addition, the “Virus Yield SI = CC50/EC90” value in the series with RSV; A2 [11] (RSV, A2) stood at 12. For the same compound, in the series with RSV; A2 [11] (human respiratory syncytial virus, read-out: Virus Yield EC90), the EC90 turned out to be 6 µg/mL (≈ 24.6 µM).
For “poly-L-lysyl [(8-octanamido)-5-acetamido-3,5-dideoxy-2-thio-D-glycero-α-D-galacto-2-nonulopyranosidoic acid]n [BRI 6150]”, the “Virus Yield (CC50)” value in the series on uninfected cells is above 1000 µg/mL.
